Experimental data as given in patent US10023836B2, “Medium for yeasts” (YAMAGUCHI UNIVERSITY, priority 2012, dated 2018).
Read-outs that look alike come from different tables or passages of the source.

Tests used:
[1] = tested on: RAK3599 strain; assay: Investigation with AID and aY-AID culture medium (FIGS. 29 to 39); type: cell-based, Saccharomyces cerevisiae; conditions: for effect on proliferation when added at high concentrations: up to 1% or up to 0.2500%; for preferred concentration / content: AID or aY-AID culture medium
Procedure: As shown in the following, an investigation was conducted into concentrations of each amino acid and a substitution potential of pantothenic acid for the amino acid in the AID culture medium. A suitable YPD culture medium was used as a control.
Next, the amino acids asparagine, isoleucine, phenylalanine, and valine were each adjusted to a culture medium additive concentration of […], 0.0312%, 0.0625%, 0.1250%, and 0.2500%, and OD600 was measured after 24 hours.
Isoleucine concentration in the aY-AID culture medium was adjusted to 0, 0.01 mg/mL, 0.1 mg/mL, 0.5 mg/mL, and 1 mg/mL, respectively, and proliferation of the RAK3599 strain was investigated.
Phenylalanine concentration in the aY-AID culture medium was adjusted to 0, 0.01, 0.1, 0.5, and 1 mg/mL, respectively, and proliferation of the RAK3599 strain was investigated.
Valine concentration in the aY-AID culture medium was adjusted to 0, 0.01, 0.1, 0.5, and 1 mg/mL, respectively, and proliferation of the RAK3599 strain was investigated.
Serine concentration in the AID culture medium was adjusted to 0, 0.01 mg/mL, 0.1 mg/mL, 0.5 mg/mL, and 1 mg/mL, respectively, and proliferation of the RAK3599 strain was investigated.
Threonine concentration in the AID culture medium was adjusted to 0, 0.01, 0.1, 0.5, and 1 mg/mL, respectively, and proliferation of the RAK3599 strain was investigated.
Asparagine concentration in the AID culture medium was adjusted to 0, 0.01, 0.1, 0.5, and 1 mg/mL, respectively, and proliferation of the RAK3599 strain was investigated.
An investigation was conducted into vitamins contained in the AID culture medium. […]

[2] = tested on: RAK2683 yeast strain; assay: Investigation of nitrogen source used singly in MM culture medium instead of ammonium sulfate (Table 4); type: cell-based, Saccharomyces cerevisiae; conditions: Table 4 conditions
[3] = tested on: RAK3599 strain; assay: Vitamin and FeCl3 concentration in AKD′ culture medium (FIGS. 22 to 28); type: cell-based, Saccharomyces cerevisiae
Procedure: (§1) In a case where no special provisions are made, a procedure for a cultivation experiment using the culture medium to be investigated for proliferation was such that a yeast undergoing investigation was pre-cultured in a YPD liquid culture medium at 28° C. for 24 hours, after which the yeast was adjusted such that OD600=20. […] In addition, OD600 was measured every 15 minutes by a spectrophotometer (Cell density meter co8000, WPA). Hereafter, data is represented by graphs for a case using the automatic spectrophotometer; however, these graphs are primarily used to compare the slope of logarithmic growth phase proliferation curves for each culture medium, and because OD600 is measured without dilution, values where OD600=3 to 3.5 or more may be incorrect.
Pyridoxine concentration in the AKD′ culture medium was adjusted to 0, 0.004, 0.04, 0.4, 4, and 40 μg/mL, respectively, and proliferation of the RAK3599 strain was investigated.
Pantothenic acid concentration in the AKD′ culture medium was adjusted to 0, 0.004, 0.04, 0.4, 4, and 40 μg/mL, respectively, and proliferation of the RAK3599 strain was investigated.
Thiamine concentration in the AKD′ culture medium was adjusted to 0, 0.004, 0.04, 0.4, 4, and 40 μg/mL, respectively, and proliferation of the RAK3599 strain was investigated.
Nicotinic acid concentration in the AKD′ culture medium was adjusted to 0, 0.004, 0.04, 0.4, 4, and 40 μg/mL, respectively, and proliferation of the RAK3599 strain was investigated.
Myo-inositol concentration in the AKD′ culture medium was adjusted to 0, 0.02 μg/mL, 0.2 μg/mL, 2 μg/mL, 20 μg/mL, and 200 μg/mL, respectively, and proliferation of the RAK 3599 strain was investigated.
FeCl3 concentration in the AKD′ culture medium was adjusted to 0, 0.002, 0.02, 0.2, 2, and 20 μg/mL, respectively, and proliferation of the RAK3599 strain was investigated.

[4] = tested on: Saccharomyces cerevisiae RAK3599 strain; assay: SynAA culture medium: elimination of single components and inorganic ion concentration; type: cell-based; conditions: for OD600 for 1/100 solutions after 42 hours: SynAA culture medium; for essentiality for increasing proliferation: one component of the vitamin mix eliminated from SynAA culture medium
Procedure: as §1
Culture mediums were prepared in which one component each of the components configuring the inorganic ion mix was eliminated from the SynAA culture medium, and OD600 was measured. […] Thereafter, an investigation specifically of inorganic ion concentration was conducted. […] An investigation was conducted using RAK3599 strain (hereafter, simply referred to as “RAK3599 strain”), which is a strain of Saccharomyces cerevisiae not having a particular nutritional requirement. Where no subsequent special provisions were made, proliferation was investigated by performing roller tube culture for an appropriate amount of time at 28° C. and measuring OD600.
MgSO4 concentration in the SynAA culture mediums was adjusted to 0%, 0.0001%, 0.001%, 0.01%, 0.1%, and 1%, respectively, and proliferation of the RAK3599 strain was investigated. […] Next, MgCl2 concentration in the SynAA culture mediums was adjusted to 0.001%, 0.01%, 0.1%, and 1%, respectively, and proliferation of the RAK3599 strain was investigated.
A culture medium was prepared in which one component each of the components configuring the vitamin mix was eliminated from the SynAA culture medium, with the SynAA culture medium as the control, and proliferation of the RAK3599 strain was investigated.

[5] = aY-AID culture medium, concentration of the substance 0
[6] = aY-AID culture medium, concentration of the substance 0.01 mg/mL
[7] = aY-AID culture medium, concentration of the substance 0.1 mg/mL
[8] = aY-AID culture medium, concentration of the substance 0.5 mg/mL
[9] = aY-AID culture medium, concentration of the substance 1 mg/mL

C[C@H](N)C(=O)O [Alanine, L-Alanine]
effect on proliferation when added at high concentrations ([1]; AID culture medium): a positive influence was imparted to proliferation | content at which the slope of the proliferation curve is greatest ([1]; aY-AID culture medium): around 1 mg/mL | OD600 after 24 hours ([1]; aY-AID culture medium, alanine 0 mg/mL): 17 | OD600 after 24 hours ([1]; aY-AID culture medium, alanine 0.1 mg/mL): 18 | OD600 after 24 hours ([1]; aY-AID culture medium, alanine 1 mg/mL): 18 | OD600 after 24 hours ([1]; aY-AID culture medium, alanine 5 mg/mL): 17 | OD600 after 24 hours ([1]; aY-AID culture medium, alanine 10 mg/mL): 18

CC(=O)O.N [Ammonium acetate]
proliferation when added singly as nitrogen source [2]: did not, as a whole, exhibit favorable proliferation

Cl.N [Ammonium chloride]
proliferation when added singly as nitrogen source [2]: did not, as a whole, exhibit favorable proliferation

NC(=O)C[C@H](N)C(=O)O.O [Asparagine, L-Asparagine monohydrate]
OD600 after 24 hours ([1]; AID culture medium, asparagine 0 mg/mL): 15 | OD600 after 24 hours ([1]; AID culture medium, asparagine 0.01 mg/mL): 16 | OD600 after 24 hours ([1]; AID culture medium, asparagine 0.1 mg/mL): 16 | OD600 after 24 hours ([1]; AID culture medium, asparagine 0.5 mg/mL): 17 | OD600 after 24 hours ([1]; AID culture medium, asparagine 1 mg/mL): 16 | effect on proliferation when added at high concentrations ([1]; AID culture medium): proliferation was confirmed to be inhibited | preferred concentration / content [1]: around 0.5 g/L

[Cl][Fe]([Cl])[Cl] [FeCl3, Anhydrous ferric (III) chloride]
preferred concentration ([3]; AKD′ culture medium): around 4000 μg/L | OD600 after 24 hours ([3]; AKD′ culture medium, FeCl3 0 μg/mL): 10 | OD600 after 24 hours ([3]; AKD′ culture medium, FeCl3 0.002 μg/mL): 9 | OD600 after 24 hours ([3]; AKD′ culture medium, FeCl3 0.02 μg/mL): 11 | OD600 after 24 hours ([3]; AKD′ culture medium, FeCl3 0.2 μg/mL): 10 | OD600 after 24 hours ([3]; AKD′ culture medium, FeCl3 2 μg/mL): 13 | OD600 after 24 hours ([3]; AKD′ culture medium, FeCl3 20 μg/mL): 14

CC[C@H](C)[C@H](N)C(=O)O [Isoleucine, L-Isoleucine]
effect on proliferation when added at high concentrations ([1]; AID culture medium): a positive influence was imparted to proliferation | preferred concentration / content [1]: around 1 g/L | OD600 after 24 hours [1, 5]: 16 | OD600 after 24 hours [1, 6]: 17 | OD600 after 24 hours [1, 7]: 16 | OD600 after 24 hours [1, 8]: 17 | OD600 after 24 hours [1, 9]: 19

[Cl-].[K+] [KCl, potassium chloride]
proliferation ([4]; 0.1% added after 20 hours to SynAA culture medium with NaH2PO4 instead of KH2PO4): proliferation began

O=P([O-])(O)O.[K+] [KH2PO4, potassium dihydrogen phosphate]
proliferation when the component is not added [4]: extremely low proliferation

O.O.O.O.O.O.O.O=S(=O)([O-])[O-].[Mg+2] [MgSO4, magnesium sulfate-heptahydrate]
OD600 for 1/100 solutions after 42 hours ([4]; concentration of the substance adjusted to 0%): 0.02 | OD600 for 1/100 solutions after 42 hours ([4]; concentration of the substance adjusted to 0.0001%): 0.04 | OD600 for 1/100 solutions after 42 hours ([4]; concentration of the substance adjusted to 0.001%): 0.09 | OD600 for 1/100 solutions after 42 hours ([4]; concentration of the substance adjusted to 0.01%): 0.12 | OD600 for 1/100 solutions after 42 hours ([4]; concentration of the substance adjusted to 0.1%): 0.13 | OD600 for 1/100 solutions after 42 hours ([4]; concentration of the substance adjusted to 1%): 0.13 | proliferation when the component is not added ([4]; one component of the inorganic ion mix eliminated from SynAA culture medium): extremely low proliferation

O=P([O-])(O)O.[Na+] [NaH2PO4]
proliferation ([4]; 0.1% added to SynAA culture medium instead of KH2PO4, after 20 hours): proliferation had not occurred

N[C@@H](Cc1ccccc1)C(=O)O [Phenylalanine, L-Phenylalanine]
effect on proliferation when added at high concentrations ([1]; AID culture medium): a positive influence was imparted to proliferation | preferred concentration / content [1]: around 1 g/L | OD600 after 24 hours [1, 5]: 17 | OD600 after 24 hours [1, 6]: 17 | OD600 after 24 hours [1, 7]: 19 | OD600 after 24 hours [1, 8]: 19 | OD600 after 24 hours [1, 9]: 19

N[C@@H](CO)C(=O)O [Serine, L-Serine]
content at which proliferation particularly increased ([1]; AID culture medium): around 0.5 mg/mL | effect on proliferation when added at high concentrations ([1]; AID culture medium): a positive influence was imparted to proliferation | preferred concentration / content [1]: around 0.5 g/L

CC(C)[C@H](N)C(=O)O [Valine, L-VALINE]
effect on proliferation when added at high concentrations ([1]; AID culture medium): a positive influence was imparted to proliferation | preferred concentration / content [1]: around 1 g/L | OD600 after 24 hours [1, 5]: 16 | OD600 after 24 hours [1, 6]: 15 | OD600 after 24 hours [1, 7]: 15 | OD600 after 24 hours [1, 8]: 16 | OD600 after 24 hours [1, 9]: 16

CC(=O)N[C@@H](Cc1ccc(O)cc1)C(=O)O [acetyl tyrosine, N-acetyl tyrosine]
OD600 after 24 hours ([1]; AID culture medium, acetyl tyrosine 0 mg/mL): 13 | OD600 after 24 hours ([1]; AID culture medium, acetyl tyrosine 0.01 mg/mL): 14 | OD600 after 24 hours ([1]; AID culture medium, acetyl tyrosine 0.1 mg/mL): 15 | OD600 after 24 hours ([1]; AID culture medium, acetyl tyrosine 0.5 mg/mL): 14 | OD600 after 24 hours ([1]; AID culture medium, acetyl tyrosine 1 mg/mL): 15 | OD600 after 24 hours ([1]; AID culture medium, acetyl tyrosine 2 mg/mL): 18 | preferred concentration / content [1]: about 1 g/L

OB(O)O [boric acid]
essentiality for increasing proliferation [4]: not be essential components

Nc1nc2ncc(CNc3ccc(C(=O)N[C@@H](CCC(=O)O)C(=O)O)cc3)nc2c(=O)[nH]1 [folic acid]
essentiality for increasing proliferation [4]: not be essential components

O[C@H]1[C@H](O)[C@@H](O)[C@H](O)[C@@H](O)[C@H]1O [inositol, myo-inositol]
proliferation versus inositol content ([3]; AKD′ culture medium, myo-inositol 0 to 200 μg/mL): Proliferation increased in proportion to an increase in inositol content | proliferation compared with AKD′ ([3]; inositol added at 10%): below that of AKD′

CC(C)(CO)[C@@H](O)C(=O)NCCC(=O)O [pantothenic acid]
concentration at which proliferation was inhibited ([3]; AKD′ culture medium): 40 µg/mL | preferred concentration ([3]; AKD′ culture medium): around 4000 μg/L | proliferation at a content of 0 ([3]; AKD′ culture medium without the substance): no proliferation whatsoever | essentiality for increasing proliferation [4]: essential components

Nc1ccc(C(=O)O)cc1 [para-aminobenzoic acid]
effect on proliferation ([1]; vitamins contained in the AID culture medium (FIG. 38)): no effect to particularly increase proliferation

Cc1cc2nc3c(=O)[nH]c(=O)nc-3n(C[C@H](O)[C@H](O)[C@H](O)CO)c2cc1C [riboflavin]
essentiality for increasing proliferation [4]: not be essential components

NCCC(=O)O [β-alanine]
substitution potential of pantothenic acid ([1]; AID culture medium (FIG. 39A)): confirmed to be substituted with pantothenic acid | concentration capable of substitution with pantothenic acid ([1]; AID culture medium (FIG. 39B)): ≥ 0.4 µg/mL
